Laboratory results from PubChem BioAssay (NCI).
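1) Cells in 96-well plates. 2) Compound, 48 h, 5 concentrations. 3) Linear interpolation between surrounding doses. 4) Unreached endpoint = highest concentration. The concentration for full growth arrest is given as TGI.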

Tests used:
Assay in all cases: NCI anticancer screen, dose series, 48 h
[1] = tested on: U251 CNS
[2] = tested on: RPMI-8226 leukemia
[3] = tested on: A549 NSCLC
[4] = tested on: HT29 colon
[5] = tested on: UO-31 renal
[6] = tested on: EKVX NSCLC
[7] = tested on: HOP-62 NSCLC
[8] = tested on: IGROV1 ovarian
[9] = tested on: A498 renal

| SMILES | TGI [1] | TGI [2] | TGI [3] | TGI [4] | TGI [5] | TGI [6] | TGI [7] | TGI [8] | TGI [9] |
| --- | --- | --- | --- | --- | --- | --- | --- | --- | --- |
| CCN(CC)C(=S)SS(=O)(=O)c1ccccc1C(=O)O | > 100 µM | > 100 µM | > 100 µM | > 100 µM | > 100 µM | > 100 µM | > 100 µM | > 100 µM | > 100 µM |
| Cc1ccc(S(=O)ON2CCC(C(=O)O)(c3ccccc3)CC2)cc1 (configuration not stated) | > 100 µM | > 100 µM | > 100 µM | > 100 µM | > 100 µM | > 100 µM | > 100 µM | > 100 µM | > 100 µM |
| O=C(O)CC(C(=O)O)c1ccccc1[N+](=O)[O-] (configuration not stated) | > 100 µM | > 100 µM | > 100 µM | > 100 µM | > 100 µM | > 100 µM | > 100 µM | > 100 µM | > 100 µM |
| O=C(NN=C1CCN(Cc2ccccc2)CC1)C(O)(c1ccccc1)c1ccccc1 | > 100 µM | > 100 µM | > 100 µM | > 100 µM | > 100 µM | > 100 µM | > 100 µM | > 100 µM | – |
| CCCCCCCCC[C@@H]1C[C@@H]2CCC3C(C(=O)OC)=C(C)NC(=N1)N32 (some centres not stated) | 16.8 µM | > 100 µM | 32.6 µM | 22.2 µM | 30.9 µM | 26.8 µM | 26.9 µM | 19.4 µM | – |
| COc1ccc2c(c1)C(N)CC2=O (configuration not stated) | > 100 µM | > 100 µM | 38.2 µM | > 100 µM | > 100 µM | > 100 µM | > 100 µM | > 100 µM | > 100 µM |
| Brc1cccc(/C=C/CN2CCN(CCOC(c3ccccc3)c3ccccc3)CC2)c1 | 27.5 µM | 19.4 µM | 31.6 µM | 24.2 µM | 27.7 µM | 40.8 µM | 30.1 µM | 29.8 µM | 32 µM |
| CSc1ccc2c(cc1=O)[C@@H](NC(C)=O)CCc1cc(O)c(O)c(O)c1-2 | 45.3 µM | > 100 µM | 45 µM | 29.2 µM | 42.8 µM | > 100 µM | 32.3 µM | 32.4 µM | > 100 µM |
| C/C(=N/NC(=S)Nc1ccccc1Cl)c1ccccn1 | 15.3 µM | 47.3 µM | 29.6 µM | 24.7 µM | 12.3 µM | 7.15 µM | 12.4 µM | 13.9 µM | 9.31 µM |
| C=C[C@@H]1OC(=O)O[C@H]1CO | > 100 µM | > 100 µM | > 100 µM | > 100 µM | > 100 µM | > 100 µM | > 100 µM | > 100 µM | > 100 µM |
| CC(C(=O)N1C(=O)N(C(=O)C(C)C(O)c2ccccc2)C(c2ccccc2)C1c1ccccc1)C(O)c1ccccc1 (configuration not stated) | 27.8 µM | 13.6 µM | > 100 µM | 18.8 µM | 41.1 µM | – | > 100 µM | > 100 µM | – |
| O=c1c(O)c(-c2ccc(O)cc2O)oc2cc(O)cc(O)c12 | > 100 µM | – | > 100 µM | > 100 µM | > 100 µM | > 100 µM | > 100 µM | > 100 µM | – |
